From patent US11505575B2, “Cyclic polypeptides for PCSK9 inhibition” (Merck Sharp & Dohme LLC, priority 2018, dated 2022)
*1 amine or outer side, *2 acyl side, *3 side chain or, on linkers, in order; H or OH if unused. Where a SMILES comes first, the peptide text is derived from it. Bridges are numbered along the chain shown (N, C = ends). [ ]: non-standard residue; d: D form. The star is where a group is joined. ξ: configuration not given here. αMeNva(5-ylidene) = C[C@@](CCC=[*:3])(N[*:1])C(=O)[*:2]; Trp(βS-Me) = C[C@@H](c1c[nH]c2ccccc12)[C@H](N)C(=O)O; Phe(4-guanidino) = N=C(N)Nc1ccc(C[C@H](N)C(=O)O)cc1; X4 = O=C([C@H](Cc1cc2cc(F)ccc2[nH]1)N[*:1])[*:2]; X3 = N=C(N)NCc1ccc(C[C@H](N[*:1])C(=O)[*:2])cc1; Trp(7-aza) = N[C@@H](Cc1c[nH]c2ncccc12)C(=O)O; Phe(4-CH2NH2) = NCc1ccc(C[C@H](N)C(=O)O)cc1; X1 = C[C@@](CCCCC=[*:3])(N[*:1])C(=O)[*:2]; pY = N[C@@H](Cc1ccc(OP(=O)(O)O)cc1)C(=O)O; mXylylene = c1cc(C[*:1])cc(C[*:2])c1; Aad = N[C@@H](CCCC(=O)O)C(=O)O; aThr = C[C@H](O)[C@H](N)C(=O)O; Agp = N=C(N)NC[C@H](N)C(=O)O; Chg = N[C@H](C(=O)O)C1CCCCC1; Tle = CC(C)(C)[C@H](N)C(=O)O; αMeV = CC(C)[C@](C)(N)C(=O)O; αMeS = C[C@](N)(CO)C(=O)O; Api = NC1(C(=O)O)CCNCC1; Nva = CCC[C@H](N)C(=O)O; ξαMeS = CC(N)(CO)C(=O)O; Aib = CC(C)(N)C(=O)O; Mpa = O=C(O)CCS; X5 = COCC*

Key:
Assay type in all cases: binding
[1] = target: T1, PCSK9 (Homo sapiens, UniProt Q8NBP7); test: PCSK9 Alexa FRET Standard assay (displacement of AlexaFluor647-tagged cyclic peptide Reagent A); settings: 0.5 nM PCSK9, 20 nM AF cyclic peptide Reagent A
T1 construct: biotin (biotinylated)
Experimental: A solution containing 1 nM biotinylated PCSK9+2.5 nM Lance Streptavidin Europium (Strep-Eu) was made in 50 mM HEPES pH 7.4, 0.15 M NaCl, 5 mM CaCl2, 0.01% BSA, and 0.01% Surfactant P20. A separate solution containing 40 nM of the AlexaFluor tagged cyclic peptide was made in the same buffer system. An Echo was used to transfer 0.750 ul of compound to an assay plate followed by the addition of 15 ul of PCSK9+Stept-Eu and 15 ul of AF peptide. The final assay volume was 30.750 ul containing 0.5 nM PCSK9, 1.25 nM Strep-Eu, and 20 nM AF cyclic peptide. The reaction was incubated at room temperature for at least two hours prior to fluorescence measurements using an Envision Multilabel Reader. IC50 values were determined by fitting data to a sigmoidal dose-response curve using nonlinear regression. Ki was then calculated from the IC50 and the KD of AF cyclic peptide. Counts (B-counts) of the europium-labeled PCSK9 were followed to observe if compounds were […]. A fall off of the B-counts likely indicated a false positive of inhibition. Data from this procedure was reported as “A=‘numerical value’ (nanomolar)”

[2] = target: T1, PCSK9; test: PCSK9 Alexa FRET Plus assay (displacement of AlexaFluor647-tagged cyclic peptide Reagent B); settings: 0.5 nM PCSK9, 960 nM AF cyclic peptide Reagent B
Experimental: A solution containing 1 nM biotinylated PCSK9+2.5 nM Lance Streptavidin Europium (Strep-Eu) was made in 50 mM HEPES pH 7.4, 0.15 M NaCl, 5 mM CaCl2, 0.01% BSA, and 0.01% Surfactant P20. A separate solution containing 1920 nM of the AlexaFluor tagged cyclic peptide was made in the same buffer system. An Echo was used to transfer 0.075 ul of compound plus 0.675 ul of DMSO to each well of an assay plate followed by the addition of 15 ul of PCSK9+Stept-Eu and 15 ul of AF peptide. The final assay volume was 30.750 ul containing 0.5 nM PCSK9, 1.25 nM Strep-Eu, and 960 nM AF cyclic peptide. The reaction was incubated at room temperature for at least two hours prior to fluorescence measurements using an Envision Multilabel Reader. IC50 values were determined by fitting data to a sigmoidal dose-response curve using nonlinear regression. Ki was then calculated from the IC50 and the KD of AF cyclic peptide. Counts (B-counts) of the europium-labeled PCSK9 were followed to observe if compounds were adversely affecting PCSK9. A fall off of the B-counts likely indicated a false positive of inhibition. Data from this procedure was reported as “P=‘numerical value’ (nanomolar)”

[3] = target: human PCSK9 / human LDLR EGFa domain interaction (Homo sapiens, UniProt Q8NBP7); test: TR-FRET assay of inhibition of the PCSK9-LDLR protein-protein interaction; settings: 20 nM biotinylated human PCSK9 + 20 nM his-tagged human LDLR EGFa domain, 2 hours room temperature
Procedure, shortened: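 Biotinylated human PCSK9 (20 nM) and His-tagged human LDLR EGFa domain (20 nM) incubated with Ulight-streptavidin and Eu-anti-His (5 nM each), 2 h at room temperature, in HEPES pH buffer with 5 mM CaCl2. TR-FRET read-out; IC50 from 4-parameter fit of dose-response.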

Chain of human PCSK9 / human LDLR EGFa domain interaction (Q8NBP7 153-692): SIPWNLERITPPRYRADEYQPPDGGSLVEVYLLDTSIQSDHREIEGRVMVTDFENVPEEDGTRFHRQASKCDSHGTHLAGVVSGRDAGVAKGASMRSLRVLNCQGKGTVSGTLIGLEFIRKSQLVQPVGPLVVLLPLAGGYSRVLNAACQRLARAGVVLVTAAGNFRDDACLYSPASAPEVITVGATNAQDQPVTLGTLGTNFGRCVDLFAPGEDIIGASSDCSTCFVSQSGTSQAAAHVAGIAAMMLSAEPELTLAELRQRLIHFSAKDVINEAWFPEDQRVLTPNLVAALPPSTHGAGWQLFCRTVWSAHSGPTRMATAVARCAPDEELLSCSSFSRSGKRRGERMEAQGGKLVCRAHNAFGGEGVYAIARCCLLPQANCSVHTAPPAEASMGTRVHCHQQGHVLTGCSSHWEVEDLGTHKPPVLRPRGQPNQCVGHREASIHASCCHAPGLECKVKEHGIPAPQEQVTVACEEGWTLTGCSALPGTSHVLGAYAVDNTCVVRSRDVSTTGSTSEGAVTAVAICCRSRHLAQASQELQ
Chain of human PCSK9 / human LDLR EGFa domain interaction (Q8NBP7 31-152 partner limits assumed): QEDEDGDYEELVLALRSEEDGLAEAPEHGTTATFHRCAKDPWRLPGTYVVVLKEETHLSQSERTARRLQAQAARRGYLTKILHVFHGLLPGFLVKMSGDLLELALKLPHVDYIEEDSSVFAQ
T1 sequence (Q8NBP7 153-692): as the sequence (Q8NBP7 153-692) above

| SMILES | IC50 [1] [µM] | IC50 [2] [µM] | IC50 [3] [µM] |
| --- | --- | --- | --- |
| CC(=O)N[C@H]1CSCc2cccc(c2)CSC[C@H](C(N)=O)NC(=O)[C@H]([C@@H](C)O)NC(=O)[C@](C)(C(C)C)NC(=O)[C@H](Cc2ccc(O)cc2)NC(=O)[C@H](C)NC(=O)[C@](C)(CO)NC(=O)[C@H](Cc2c[nH]c3ncccc23)NC(=O)[C@H]([C@@H](C)O)NC(=O)[C@@H]2CCCN2C(=O)[C@H](Cc2ccc(O)cc2)NC(=O)[C@H](C(C)(C)C)NC1=O [Compound 031] (Ac-C[Tle]YPT[Trp(7-aza)][αMeS]AY[αMeV]T[dC]-NH2; linker 1-12 via mXylylene) | 0.001 to 0.1 | 0.001 to 0.1 |  |
| CC(C)[C@](C)(NC(=O)[C@H](Cc1ccc(O)cc1)NC(=O)[C@H](C)NC(=O)C(C)(C)NC(=O)[C@H](Cc1c[nH]c2ncccc12)NC(=O)[C@@H](NC(=O)[C@@H]1CCCN1C(=O)[C@@H]1Cc2ccc(O)c(c2)CCCC[C@H](N)C(=O)N[C@@H](C(C)(C)C)C(=O)N1)[C@@H](C)O)C(N)=O [Compound 032] | 0.001 to 0.1 | 0.001 to 0.1 |  |
| CC(=O)N[C@H]1CSCc2cccc(c2)CSC[C@H](C(N)=O)NC(=O)[C@H]([C@@H](C)O)NC(=O)[C@](C)(C(C)C)NC(=O)[C@H](Cc2ccc(O)cc2)NC(=O)[C@H](C)NC(=O)C2(CCNCC2)NC(=O)[C@H](Cc2c[nH]c3ncccc23)NC(=O)[C@H]([C@@H](C)O)NC(=O)[C@@H]2CCCN2C(=O)[C@H](Cc2ccc(O)cc2)NC(=O)[C@H](C(C)(C)C)NC1=O [Compound 034] (Ac-C[Tle]YPT[Trp(7-aza)][Api]AY[αMeV]T[dC]-NH2; linker 1-12 via mXylylene) | 0.001 to 0.1 | 0.001 to 0.1 |  |
| COCC1(C)NC(=O)[C@H](Cc2c[nH]c3ncccc23)NC(=O)[C@H]([C@@H](C)O)NC(=O)[C@@H]2CCCN2C(=O)[C@H](Cc2ccc(O)cc2)NC(=O)[C@H](C(C)(C)C)NC(=O)[C@@H](NC(C)=O)CSCc2cccc(c2)CSC[C@H](C(N)=O)NC(=O)[C@H]([C@@H](C)O)NC(=O)[C@](C)(C(C)C)NC(=O)[C@H](Cc2ccc(O)cc2)NC(=O)[C@H](C)NC1=O (some centres unmarked) [Compound 035] (Ac-C[Tle]YPT[Trp(7-aza)][ξαMeS](Me)AY[αMeV]T[dC]-NH2; linker 1-12 via mXylylene) | 0.1 to 1 | 0.1 to 0.5 |  |
| COCCOCC1(C)NC(=O)[C@H](Cc2c[nH]c3ncccc23)NC(=O)[C@H]([C@@H](C)O)NC(=O)[C@@H]2CCCN2C(=O)[C@H](Cc2ccc(O)cc2)NC(=O)[C@H](C(C)(C)C)NC(=O)[C@@H](NC(C)=O)CSCc2cccc(c2)CSC[C@H](C(N)=O)NC(=O)[C@H]([C@@H](C)O)NC(=O)[C@](C)(C(C)C)NC(=O)[C@H](Cc2ccc(O)cc2)NC(=O)[C@H](C)NC1=O (some centres unmarked) [Compound 036] (Ac-C[Tle]YPT[Trp(7-aza)][ξαMeS](X5)AY[αMeV]T[dC]-NH2; linker 1-12 via mXylylene) | 0.001 to 0.1 | 0.001 to 0.1 |  |
| CC(=O)N[C@H]1CSCc2cccc(c2)CSC[C@H](C(N)=O)NC(=O)[C@H]([C@H](C)O)NC(=O)[C@](C)(C(C)C)NC(=O)[C@H](Cc2ccc(OP(=O)(O)O)cc2)NC(=O)[C@H](C)NC(=O)C(C)(C)NC(=O)[C@H](Cc2c[nH]c3ncccc23)NC(=O)[C@H]([C@@H](C)O)NC(=O)[C@@H]2CCCN2C(=O)[C@H](Cc2ccc(O)cc2)NC(=O)[C@H](C(C)(C)C)NC1=O [Compound 039] (Ac-C[Tle]YPT[Trp(7-aza)][Aib]A[pY][αMeV][aThr][dC]-NH2; linker 1-12 via mXylylene) | 0.1 to 1 | 0.001 to 0.1 |  |
| CCC[C@@H]1NC(=O)[C@H](Cc2c[nH]c3ncccc23)NC(=O)[C@H]([C@@H](C)O)NC(=O)[C@H](Cc2cnc[nH]2)NC(=O)[C@H](Cc2ccc(O)cc2)NC(=O)[C@H](Cc2ccc(CN)cc2)NC(=O)CCSCc2cccc(c2)CSC[C@@H](C(N)=O)NC(=O)[C@H]([C@@H](C)O)NC(=O)[C@H](CCC)NC(=O)[C@H](Cc2ccc(O)cc2)NC(=O)[C@H](CCC(=O)O)NC1=O [Compound 086] ([Mpa][Phe(4-CH2NH2)]YHT[Trp(7-aza)][Nva]EY[Nva]TC-NH2; linker 1-12 via mXylylene) | 0.1 to 1 |  | 0.1 to 1 |
| CCC[C@@H]1NC(=O)[C@H](Cc2c[nH]c3ncccc23)NC(=O)[C@H]([C@@H](C)O)NC(=O)[C@H](CNC(=N)N)NC(=O)[C@H](Cc2ccc(O)cc2)NC(=O)[C@H](Cc2cc3cc(F)ccc3[nH]2)NC(=O)[C@@H](NC(=O)[C@H](Cc2ccc(NC(=N)N)cc2)NC(C)=O)CSCc2cccc(c2)CSC[C@@H](C(N)=O)NC(=O)[C@H]([C@@H](C)O)NC(=O)[C@H](CCC)NC(=O)[C@H](Cc2ccc(O)cc2)NC(=O)[C@H](CCC(=O)O)NC1=O [Compound 091] (Ac-[Phe(4-guanidino)]C[X4]Y[Agp]T[Trp(7-aza)][Nva]EY[Nva]TC-NH2; linker 2-13 via mXylylene) | 0.001 to 0.1 |  | 0.1 to 1 |
| CCC[C@@H]1NC(=O)[C@H](Cc2c[nH]c3ncccc23)NC(=O)[C@H]([C@@H](C)O)NC(=O)[C@H](Cc2cnc[nH]2)NC(=O)[C@H](Cc2ccc(O)cc2)NC(=O)[C@H]([C@@H](C)c2c[nH]c3ccccc23)NC(=O)CCSCc2cccc(c2)CSC[C@@H](C(N)=O)NC(=O)[C@H]([C@@H](C)O)NC(=O)[C@H](CCC)NC(=O)[C@H](Cc2ccc(O)cc2)NC(=O)[C@H](CCC(=O)O)NC1=O [Compound 097] ([Mpa][Trp(βS-Me)]YHT[Trp(7-aza)][Nva]EY[Nva]TC-NH2; linker 1-12 via mXylylene) | 0.001 to 0.1 |  | 0.001 to 0.1 |
| CCC[C@@H]1NC(=O)[C@H](Cc2c[nH]c3ncccc23)NC(=O)[C@H]([C@@H](C)O)NC(=O)[C@H](Cc2cnc[nH]2)NC(=O)[C@H](Cc2ccc(O)cc2)NC(=O)[C@H](C(C)(C)C)NC(=O)[C@@H](NC(=O)[C@H](Cc2ccc(CNC(=N)N)cc2)NC(C)=O)CSCc2cccc(c2)CSC[C@@H](C(N)=O)NC(=O)[C@H]([C@@H](C)O)NC(=O)[C@H](CCC)NC(=O)[C@H](Cc2ccc(O)cc2)NC(=O)[C@H](CCC(=O)O)NC1=O [Compound 098] (Ac-[X3]C[Tle]YHT[Trp(7-aza)][Nva]EY[Nva]TC-NH2; linker 2-13 via mXylylene) | 0.1 to 1 |  | 21 to 50 |
| CCC[C@@H]1NC(=O)[C@H](Cc2ccc(O)cc2)NC(=O)[C@H](C)NC(=O)[C@]2(C)CC/C=C\CCCC[C@](C)(NC1=O)C(=O)N[C@H](C(N)=O)CCCCNC(=O)CCC[C@H](NC(C)=O)C(=O)N[C@@H](C(C)(C)C)C(=O)N[C@@H](Cc1ccc(O)cc1)C(=O)N1CCC[C@H]1C(=O)N[C@@H]([C@@H](C)O)C(=O)N[C@@H](Cc1c[nH]c3ncccc13)C(=O)N2 [Compound 104] (Ac-[Aad][Tle]YPT[Trp(7-aza)][αMeNva(5-ylidene)]AY[Nva][X1]K-NH2; lactam 1-12; staple (Z) 7-11) | 0.1 to 1 |  | 1 to 12.1 |
| CCC[C@@H]1NC(=O)[C@H](Cc2c[nH]c3ncccc23)NC(=O)[C@H]([C@@H](C)O)NC(=O)[C@@H]2CCCCNC(=O)CC[C@H](NC1=O)C(=O)N[C@@H](Cc1ccc(O)cc1)C(=O)N[C@@H](C1CCCCC1)C(=O)N[C@@H]([C@@H](C)O)C(=O)N[C@@H](C(N)=O)CSCc1cccc(c1)CSCCC(=O)N[C@@H](C(C)(C)C)C(=O)N[C@@H](Cc1ccc(O)cc1)C(=O)N2 [Compound 107] ([Mpa][Tle]YKT[Trp(7-aza)][Nva]EY[Chg]T[dC]-NH2; linker 1-12 via mXylylene; lactam 4-8) | 0.001 to 0.1 |  | 0.001 to 0.1 |
| CCC[C@@H]1NC(=O)[C@H](Cc2ccc(O)cc2)NC(=O)[C@@H]2CCC(=O)NCCCC[C@H](NC(=O)[C@H](Cc3ccc(O)cc3)NC(=O)[C@H](C(C)(C)C)NC(=O)CCSCc3cccc(c3)CSC[C@@H](C(N)=O)NC(=O)[C@H]([C@@H](C)O)NC1=O)C(=O)N[C@@H]([C@@H](C)O)C(=O)N[C@@H](Cc1c[nH]c3ncccc13)C(=O)NC(C)(C)C(=O)N2 [Compound 110] ([Mpa][Tle]YKT[Trp(7-aza)][Aib]EY[Nva]TC-NH2; linker 1-12 via mXylylene; lactam 4-8) | 0.001 to 0.1 |  | 0.001 to 0.1 |
